Experimental data reported in ChEMBL document CHEMBL1122256, “Novel tetracyclic spiropiperidines. 3. 1-arylspiro[indoline-3,4'-piperidine]s as potential antidepressants” (J Med Chem, 1983).

How the values were obtained:
[1] = system: Mus musculus; assay: In vivo antidepressant activity measured by yohimbine toxicity potentiation in mouse after intraperitoneal administration; format: functional; settings: ip
[2] = species on record: Rattus norvegicus; assay: In vitro inhibition of neuronal uptake against serotonin in rat whole brain; format: functional
[3] = system: Rattus norvegicus; assay: In vivo antidepressant activity against muricide in rat after intraperitoneal administration; format: functional; settings: ip
[4] = system: Monoamine oxidase (Rattus norvegicus); assay: In vitro inhibition of MAO against mitochondrial preparation in rat whole brain
[5] = system: Mus musculus; assay: In vivo antidepressant activity by tetrabenazine ptosis prevention in mouse after intraperitoneal administration; settings: ip
[6] = species on record: Rattus norvegicus; assay: In vitro inhibition of neuronal uptake against dopamine in rat striatum; format: functional
[7] = system: Mus musculus; assay: Antidepressant activity by tetrabenazine ptosis prevention in mouse after oral administration; format: functional
[8] = system: Rattus norvegicus; assay: In vivo antidepressant activity measured by potentiation of head twitching induced by 5-HTP in pargyline-pretreated rats after intraperitoneal administration; format: functional; settings: ip
[9] = species on record: Rattus norvegicus; assay: In vitro inhibition of neuronal uptake against norepinephrine in rat whole brain; format: functional
[10] = system: Mus musculus; assay: Inhibition of tetrabenazine ptosis in mice following i.p. administration.; format: functional; settings: ip
[11] = system: Rattus norvegicus; assay: Potentiation of head twitching induced by 5-HTP in pargyline-pretreated rats following i.p. administration.; format: functional; settings: ip
[12] = system: Mus musculus; assay: Antidepressant activity by tetrabenazine ptosis prevention in mice after intraperitoneal administration; d = All animals died after tetrabenazine dosing; format: functional, organism-based
[13] = system: Mus musculus; assay: Antidepressant activity by tetrabenazine ptosis prevention in mice after intraperitoneal administration; settings: ip
[14] = system: Mus musculus; assay: In vivo antidepressant activity by tetrabenazine ptosis prevention in mice after intraperitoneal administration; format: functional; settings: ip
[15] = system: Mus musculus; assay: In vivo antidepressant activity by tetrabenazine ptosis prevention in mice after oral administration; format: functional
[16] = system: Mus musculus; assay: Antidepressant activity by tetrabenazine ptosis prevention in mice after oral administration; format: functional
[17] = system: Mus musculus; assay: Antidepressant activity by tetrabenazine ptosis prevention in mice after oral administration
[18] = system: Mus musculus; assay: Antidepressant activity by tetrabenazine ptosis prevention in mice after peroral administration; format: functional; settings: po
[19] = system: Rattus norvegicus; assay: Antidepressant activity measured by potentiation of head twitching induced by 5-HTP in pargyline-pretreated rats after intraperitoneal administered; format: functional; settings: ip

SMILES	ED50 [10]	ED50 [11]	other results
Clc1ccccc1N1CC2(CCNCC2)c2ccccc21.O=C(O)/C=C\C(=O)O			ED50 [1]: 1.6 mg/kg; IC50 [2]: 1.7 µM; ED50 [3]: 4.9 mg/kg; IC50 [4]: 160 µM; ED50 [5]: 1.2 mg/kg; IC50 [6]: 8 µM; ED50 [7]: 0.37 mg/kg; ED50 [8]: 4.7 mg/kg; IC50 [9]: 6.5 µM
CN1CCC2(CC1)CN(c1ccccc1N)c1ccccc12.Cl	4 mg/kg	> 10 mg/kg	
Cl.O=[N+]([O-])c1ccccc1N1CC2(CCNCC2)c2ccccc21		> 10 mg/kg	ED50 [12]: All animals died
CN1CCC2(CC1)CN(c1ccccc1F)c1cc(Cl)ccc12.O=C(O)/C=C\C(=O)O	11 mg/kg	> 10 mg/kg	
CN1CCC2(CC1)CN(c1ccccc1Cl)c1cc(Cl)ccc12.O=C(O)/C=C\C(=O)O	2.6 mg/kg	> 10 mg/kg	
CN1CCC2(CC1)CN(c1ccc(C(F)(F)F)cc1)c1ccccc12	> 20 mg/kg	7.8 mg/kg	ED50 [13]: > 20 mg/kg
Cl.Nc1ccccc1N1CC2(CCNCC2)c2ccccc21	> 20 mg/kg	> 10 mg/kg	
CN(C)CCC=C1c2ccccc2CCc2ccccc21 [AMITRIPTYLINE]			ED50 [1]: 8 mg/kg; ED50 [3]: 22.6 mg/kg; ED50 [14]: 1.5 mg/kg; ED50 [8]: 7.1 mg/kg; ED50 [15]: 1.94 mg/kg
CN1CCC2(CC1)CN(c1ccccc1C(F)(F)F)c1cc(Cl)ccc12.O=C(O)/C=C\C(=O)O	> 8 mg/kg	> 10 mg/kg	
CN1CCC2(CC1)CN(c1ccccc1F)c1ccccc12.O=C(O)/C=C\C(=O)O	15.2 mg/kg	> 10 mg/kg	
CN1CCC2(CC1)CN(c1ccccc1Cl)c1ccccc12.O=C(O)/C=C\C(=O)O		> 10 mg/kg	ED50 [16]: 3.2 mg/kg
CN1CCC2(CC1)CN(c1ccc(Cl)cc1)c1ccccc12	> 20 mg/kg	> 10 mg/kg	
Fc1ccc(N2CC3(CCNCC3)c3ccccc32)cc1.O=C(O)/C=C\C(=O)O	> 20 mg/kg	> 10 mg/kg	ED50 [13]: > 20 mg/kg
CN1CCC2(CC1)CN(c1cccc(C(F)(F)F)c1)c1ccccc12	> 20 mg/kg	> 10 mg/kg	
Br.CN1CCC2(CC1)CN(c1ccccn1)c1ccccc12	> 20 mg/kg	> 10 mg/kg	
CN1CCC2(CC1)CN(c1ccccc1)c1ccccc12	> 20 mg/kg	> 10 mg/kg	
Fc1ccccc1N1CC2(CCNCC2)c2ccc(Cl)cc21.O=C(O)/C=C\C(=O)O	> 8 mg/kg	> 10 mg/kg	
c1ccc(C2OC3(CCNCC3)c3ccccc32)cc1 (configuration not stated)	0.5 mg/kg	1.9 mg/kg	ED50 [17]: 1 mg/kg
Cl.Cl.Nc1ccccc1N1CC2(CCNCC2)c2ccc(Cl)cc21	> 20 mg/kg	> 10 mg/kg	
CNCCCN1c2ccccc2CCc2ccccc21 [DESIPRAMINE]	0.8 mg/kg	> 10 mg/kg	ED50 [17]: 1.6 mg/kg
CN1CCC2(CC1)CN(c1ccccc1[N+](=O)[O-])c1ccccc12		> 10 mg/kg	ED50 [13]: 4 mg/kg; ED50 [18]: 8.4 mg/kg
CN1CCC2(CC1)CN(c1ccccc1N)c1cc(Cl)ccc12.Cl.Cl	> 20 mg/kg	> 10 mg/kg	
Br.CN1CCC2(CC1)CN(c1ccc(F)cc1)c1ccccc12	> 20 mg/kg		ED50 [13]: > 20 mg/kg; ED50 [19]: > 10 mg/kg
